Measurements from patent US11925194B2, “Antimicrobially active mixtures” (SYMRISE AG, priority 2017, dated 2024).

Assays:
C. albicans = experiment: Germ load test of aroma and extract combinations, pure water pH 7; type: cell-based, Candida albicans; details: 400 ppm in sample
From the text: (§1) In the scope of a further test, the antimicrobial effect of aroma and extract combinations was examined. […] For example, grape stone extract and the flavouring agent vanillic acid have a different effect against yeasts. In the combination, however, also an effect against fungi and an optimal effect against yeasts was observed. The pomegranate and red berry extract have a lower effect at pH 7 compared to pH 3 (cf. Example 5), the pomegranate extract eliminates S. cerevisiae in less than 14 days at 1000 mg/kg. In combination with Limonene-containing lemon oils, however, the effect can be increased for higher pH values.

S. cerevisiae [1] = experiment: as above; type: cell-based, Saccharomyces cerevisiae; details: 400 ppm in sample
From the text: as §1

Z. bailii = experiment: as above; type: cell-based, Zygosaccharomyces bailii; details: 400 ppm in sample
From the text: as §1

S. cerevisiae [2] = experiment: Antimicrobial effect of extracts and fractions, citrate buffer pH 5; type: cell-based, Saccharomyces cerevisiae
From the text: For further examination of the antimicrobial effect of different extracts alone, i.e. without a combination with component (B) or fractions thereof according to the invention, exemplary extracts or fractions thereof such as described in Examples 1 to 4 were used. […] The samples were inoculated with 3.8×10^4 CFU/mL […].

COc1cc(C(=O)O)ccc1O [Vanillic acid]
Elimination of C. albicans in less than (time) (C. albicans): < 24 h
Elimination of S. cerevisiae in less than (time) (S. cerevisiae [1]): < 14 days
Elimination of Z. bailii in less than (time) (Z. bailii): < 24 h

C/C=C/C=C/C(=O)[O-].[K+] [potassium sorbate]
Reduction in the germination number of S. cerevisiae (in words) (S. cerevisiae [2]; 375 mg/kg, pH 5, 28 days): did not show a significant reduction
Germination number S. cerevisiae after 28 days (S. cerevisiae [2]; dose 375 mg/kg, citrate buffer pH 5, after inoculation 3.80E+04): 1.00E+03 CFU/mL
